Data published in patent US6552066B1, “Protein tyrosine kinase inhibitors for treating osteoarthritis” (priority 1995, dated 2003).
Like-named read-outs stand apart in the source and are kept apart here.

Tests used:
[1] = system: IL-1 induced release of 35S-labelled proteoglycans from chondrocytes; experiment: Chondrocyte cell culture matrix breakdown assay (IL-1 induced 35S release); assay type: cell-based, calf (bovine); details: for inhibition at 50 µM / inhibition at 10 µM: Bos taurus, Chondrocyte
Experimental: A cell culture assay was used to measure the ability of the test compounds to slow the degradation of the extracellular matrix by a metalloproteinase. This assay measured the amount ^35S released from chondrocytes grown in a media with ^35S labeled sodium sulfate. The cell culture assay was carried out as follows:
Two or three 1 to 3 week old calf joints were obtained from an abattoir. The proximal end of the shank was about 4-5′ long to facilitate immobilization in the holder. The joint was kept cool and transported on ice. The exterior of the intact joints was washed well with a suitable anti-microbial soap, rinsed clean with warm water, rinsed in betadine and then finally rinsed with 70% ethanol. Up to this point all steps were done in a manner to ensure that the joint was kept as clean as possible. All subsequent steps were performed in a sterile field (i.e., in a Edgeguard laminar flow tissue culture hood). The joint was immobilized and the synovial fluid was aspirated with a needle and syringe. The joint was then cut open to expose the articular cartilage using a #21 scalpel. Using locking hemostats, forceps and a #15 scalpel, the cartilage was excised in full thickness pieces. Care was taken not to cut too deep into the subchondral bone to prevent bleeding. The cartilage pieces were placed into a 50 mL centrifuge tube containing 25 mL of Delbecco's phosphate buffered saline (D-PBS) supplemented with 1% antibiotic solution (penicillin, streptomycin and fungizone; GIBCO/BRL). The slices from each joint were then placed into separate 50 mL centrifuge tubes. The D-PBS was decanted and replaced with 25 mL of fresh D-PBS supplemented with antibiotics and subsequently agitated gently.
The cartilage pieces were transferred to a fresh 50 mL centrifuge tube and rinsed once more with 25 mL of D-PBS minus antibiotics. An enzymatic digestion solution containing 1 mg/mL of hyaluronidase in serum-free 1:1 DMEM/Ham's F-12 (DMEM/F12) was prepared. This solution was filter sterilized with 0.22 mm Milex-GV filter and kept on ice until ready to use. The cartilage pieces were digested with approximately 5 mL of hyaluronidase solution per joint for 2×15 minutes at 37° C. in the 50 mL centrifuge tube with gentle agitation at the 15 minute mark. This procedure removed residual hyaluronic acid from the surface of the chips. The enzymatic digestion solution was then aspirated and the cartilage pieces were rinsed with 25 mL of D-PBS.
A second enzymatic digestion solution containing 2.5 mg trypsin and 2 mg collagenase P per mL serum-free DMEM/F12 was prepared. This solution was also filter sterilized with a 0.22 mm Millex-GV filter and kept on ice until ready to use. The cartilage pieces were digested with approximately 5 mL of trypsin: collagenase solution per joint for 2×15 minutes at 37° C. in the 50 mL centrifuge tube with gentle agitation at the 15 minute mark. This procedure removed the synovial fibroblasts and any adherent connective tissue from the surface of the chips. The enzymatic digestion solution was then carefully removed and saved and the cartilage pieces were rinsed with 25 mL of D-PBS.
A third enzymatic solution containing 2 mgs of collagenase P (BMB) per mL serum-free DMEM/F12 was prepared. This solution was filter sterilized with a 0.22 mm Millex-GV filter and kept on ice until ready to use. The pre-digested cartilage pieces were finally digested with approximately 20 mL of enzymatic digestion solution per joint for 5-6 hours at 37° C. in a Bellco stirring digestion flask, at which point the cartilage was fully digested away.
The enzymes in the synovial fibroblast and chondrocyte digest were neutralized by addition of an equal volume of DMEM/F12 supplemented with 5% fetal bovine serum. Fibroblasts were plated in DMEM at a cellular density of 6.6×10^3 cells per cm^2. […]

[2] = system: stromelysin mRNA; experiment: Northern blot of IL-1-induced stromelysin mRNA in primary bovine chondrocytes; assay type: cell-based; details: 2 h preincubation, IL-1α 1 ng/ml 24 hours
Experimental: The isolation of cartilage and the enzymatic degradation of cartilage was carried out as described in Example 1.
Chondrocytes were recovered by addition of an equal volume of DMEM/F12 supplemented with 10% fetal bovine serum (FBS) to neutralize enzymes, filtration through a 70μm nylon Cell Strainer (Falcon), and centrifugation at 1000×g for ten minutes at room temperature. Chondrocytes were seeded in T-150 plates at 5×10^4 cells/cm^2 using 1:1 DMEM/F12, 10% FBS, 1% antibiotic solution (penicillin, streptomycin, fungizone: GIBCO/BRL), and incubated at 37° C., 5% CO2. Cells were refed with DMEM/F12 plus 10% FBS on days 4, 7, and 10. On day 11, test cultures (except for the+interleukin 1α control) were rinsed in phosphate buffered saline (PBS), and preincubated for 2 hours with 5 ml of serum-free DMEM/F12 containing one of the following protein kinase inhibitors:
1) Protein kinase A (PKA) inhibitors; 0.5 μM H88 (Seikagaku Corp.), 0.5 μMH89 (Seikagaku Corp.); 2) Protein kinase G (PKG) and PKA inhibitor; 5.0 μM H89; 3) Protein kinase C. (PKC) inhibitors; 0.5 μM Calphostin C (Calbiochem), 1.0 μM chelerythrine (Calbiochem); 4) CA^2+/Calmodulin Kinase II inhibitor; 5.0 μM KN93 (Seikagaku Corp.); 5) Protein tyrosine kinase (PTK) inhibitors; 50 μM Genistein (Calbiochem), 10 μM Herbimycin A (Calbiochem), 50 μM Tyrphostin A25 (AG 82) (Calbiochem), 50 μm Tyrphostin AG 126 (Calbiochem), 50 μM Tyrphostin B56 (AG 556) (Calbiochem), 20 μM DAPH (Calbiochem).
Recombinant human interleukin 1 α (IL-1α) (R & D Systems) at 1 ng/ml was then added to all cultures (except the IL-1α control) for 24 hours in serum-free DMEM/F12 containing 1% antibiotic solution.
RNA on the Northern blot was fixed to the membrane by baking at 80° C. for 30 minutes.
Prehybridization (1.5 hours) and hybridization (overnight) of the Northern blot with the radioactive probes were performed in 50% formamide, 1×GIBCO/BRL hybridization solution, 0.1% SDS, and 10mM monobasic sodium phosphate, at 42° C. The blot was successively washed two times in 1×SSC/0.1% SDS (15 minutes/wash at room temperature), and two times in 0.2×SSC/0.1% SDS (30 minutes/wash at 55° C.). The blot was allowed to air dry, and was exposed to X-ray film, with intensifying screen, overnight at −70° C.

O=C1NC(=O)c2cc(Nc3ccccc3)c(Nc3ccccc3)cc21 [DAPH, 4,5-dianilinophthalimide]
percent inhibition of IL-1 induced 35S release ([1]; 2 μM, repeated assay): no inhibition
percent inhibition of IL-1 induced 35S release ([1]; 20 μM, repeated assay): no inhibition
inhibition of IL-1-induced upregulation of stromelysin mRNA levels ([2]; 20 μM): Total inhibition

O=c1c(-c2ccc(O)cc2)coc2cc(O)cc(O)c12 [Genistein]
inhibition at 50 µM ([1]; 50 μM, first experiment, 1 ng/ml rhIL-1α, read-out: inhibitory effect on IL-1 induced release of 35S-labelled proteoglycans): 75 to 100%
inhibition at 50 µM ([1]; 50 μM, repeated assay, read-out: percent inhibition of IL-1 induced 35S release): 58%
inhibition of IL-1-induced upregulation of stromelysin mRNA levels ([2]; 50 μM): Total inhibition

CO[C@H]1[C@@H](OC)C[C@H](C)[C@@H](OC)C2=CC(=O)C=C(NC(=O)/C(C)=C/C=C\[C@H](OC)[C@@H](OC(N)=O)/C(C)=C/[C@@H]1C)C2=O [Herbimycin A]
inhibition at 10 µM ([1]; first experiment, 1 ng/ml rhIL-1α, read-out: inhibitory effect on IL-1 induced release of 35S-labelled proteoglycans): 75 to 100%
inhibition at 10 µM ([1]; repeated assay, read-out: percent inhibition of IL-1 induced 35S release): 89%
inhibition of IL-1-induced upregulation of stromelysin mRNA levels ([2]; 10 μM): Total inhibition

N#CC(C#N)=Cc1cc(O)c(O)c(O)c1 [Tyrphostin AG 82]
percent inhibition of IL-1 induced 35S release ([1]; 50 μM, repeated assay): 40%
inhibition of IL-1-induced upregulation of stromelysin mRNA levels ([2]; 50 μM): no effect

N#CC(C#N)=Cc1ccc([N+](=O)[O-])c(O)c1 [Tyrphostin AG 126]
percent inhibition of IL-1 induced 35S release ([1]; 50 μM, repeated assay): no inhibition
inhibition of IL-1-induced upregulation of stromelysin mRNA levels ([2]; 50 μM): no effect

N#C/C(=C\c1ccc(O)c(O)c1)C(=O)NCCCCc1ccccc1 [Tyrphostin AG 556]
percent inhibition of IL-1 induced 35S release ([1]; 50 μM, repeated assay): 100%
inhibition of IL-1-induced upregulation of stromelysin mRNA levels ([2]; 50 μM): Total inhibition
